These results are taken from the kinase profiling compilation of Christmann-Franck et al. (2016).

A word on the residual activity: it is the signal under treatment as a percentage of the control signal.

Each structure is given as a SMILES string.

Sequence of PRKCD (human) (Q05655 whole entry, looked up): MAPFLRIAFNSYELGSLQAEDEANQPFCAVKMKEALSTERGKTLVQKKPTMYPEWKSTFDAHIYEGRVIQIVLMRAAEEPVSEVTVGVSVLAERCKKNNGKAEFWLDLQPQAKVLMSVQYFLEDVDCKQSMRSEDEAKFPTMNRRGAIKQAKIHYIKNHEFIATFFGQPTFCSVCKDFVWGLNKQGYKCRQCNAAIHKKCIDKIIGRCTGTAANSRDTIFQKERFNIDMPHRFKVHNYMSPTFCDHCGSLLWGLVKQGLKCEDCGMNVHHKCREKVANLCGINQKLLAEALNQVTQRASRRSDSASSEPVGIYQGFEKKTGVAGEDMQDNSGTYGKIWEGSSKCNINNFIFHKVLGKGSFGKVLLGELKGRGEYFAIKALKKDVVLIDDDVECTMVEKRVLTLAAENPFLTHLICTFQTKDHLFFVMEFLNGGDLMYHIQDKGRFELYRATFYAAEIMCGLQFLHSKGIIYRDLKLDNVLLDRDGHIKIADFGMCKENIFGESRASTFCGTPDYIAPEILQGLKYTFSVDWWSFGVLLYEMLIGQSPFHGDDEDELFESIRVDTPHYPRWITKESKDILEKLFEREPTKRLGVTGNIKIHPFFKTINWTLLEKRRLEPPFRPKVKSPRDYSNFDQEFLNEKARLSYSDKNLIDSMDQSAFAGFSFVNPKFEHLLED
Sequence of FER (human) (P16591 whole entry, looked up): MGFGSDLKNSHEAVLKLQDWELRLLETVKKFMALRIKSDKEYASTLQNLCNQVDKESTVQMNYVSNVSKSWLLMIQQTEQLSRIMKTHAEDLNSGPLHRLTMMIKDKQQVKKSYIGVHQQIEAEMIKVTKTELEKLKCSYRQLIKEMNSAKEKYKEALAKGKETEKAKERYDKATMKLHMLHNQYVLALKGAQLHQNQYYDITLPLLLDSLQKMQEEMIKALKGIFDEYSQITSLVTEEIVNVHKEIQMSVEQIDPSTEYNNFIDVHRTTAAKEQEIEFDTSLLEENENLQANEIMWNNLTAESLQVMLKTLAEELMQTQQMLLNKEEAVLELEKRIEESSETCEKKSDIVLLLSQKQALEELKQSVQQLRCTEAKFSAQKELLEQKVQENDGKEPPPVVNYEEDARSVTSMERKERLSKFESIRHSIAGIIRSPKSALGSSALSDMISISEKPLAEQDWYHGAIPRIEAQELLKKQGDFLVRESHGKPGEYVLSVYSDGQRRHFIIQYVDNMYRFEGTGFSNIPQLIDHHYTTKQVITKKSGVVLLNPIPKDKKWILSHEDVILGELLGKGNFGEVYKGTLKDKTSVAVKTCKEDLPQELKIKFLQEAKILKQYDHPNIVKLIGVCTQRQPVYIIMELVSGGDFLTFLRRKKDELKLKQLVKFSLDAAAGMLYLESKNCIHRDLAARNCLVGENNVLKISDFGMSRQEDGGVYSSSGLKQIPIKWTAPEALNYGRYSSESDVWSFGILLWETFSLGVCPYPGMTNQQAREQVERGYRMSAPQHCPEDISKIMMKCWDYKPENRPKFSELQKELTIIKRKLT
Sequence of INSR (human) (P06213 whole entry, looked up): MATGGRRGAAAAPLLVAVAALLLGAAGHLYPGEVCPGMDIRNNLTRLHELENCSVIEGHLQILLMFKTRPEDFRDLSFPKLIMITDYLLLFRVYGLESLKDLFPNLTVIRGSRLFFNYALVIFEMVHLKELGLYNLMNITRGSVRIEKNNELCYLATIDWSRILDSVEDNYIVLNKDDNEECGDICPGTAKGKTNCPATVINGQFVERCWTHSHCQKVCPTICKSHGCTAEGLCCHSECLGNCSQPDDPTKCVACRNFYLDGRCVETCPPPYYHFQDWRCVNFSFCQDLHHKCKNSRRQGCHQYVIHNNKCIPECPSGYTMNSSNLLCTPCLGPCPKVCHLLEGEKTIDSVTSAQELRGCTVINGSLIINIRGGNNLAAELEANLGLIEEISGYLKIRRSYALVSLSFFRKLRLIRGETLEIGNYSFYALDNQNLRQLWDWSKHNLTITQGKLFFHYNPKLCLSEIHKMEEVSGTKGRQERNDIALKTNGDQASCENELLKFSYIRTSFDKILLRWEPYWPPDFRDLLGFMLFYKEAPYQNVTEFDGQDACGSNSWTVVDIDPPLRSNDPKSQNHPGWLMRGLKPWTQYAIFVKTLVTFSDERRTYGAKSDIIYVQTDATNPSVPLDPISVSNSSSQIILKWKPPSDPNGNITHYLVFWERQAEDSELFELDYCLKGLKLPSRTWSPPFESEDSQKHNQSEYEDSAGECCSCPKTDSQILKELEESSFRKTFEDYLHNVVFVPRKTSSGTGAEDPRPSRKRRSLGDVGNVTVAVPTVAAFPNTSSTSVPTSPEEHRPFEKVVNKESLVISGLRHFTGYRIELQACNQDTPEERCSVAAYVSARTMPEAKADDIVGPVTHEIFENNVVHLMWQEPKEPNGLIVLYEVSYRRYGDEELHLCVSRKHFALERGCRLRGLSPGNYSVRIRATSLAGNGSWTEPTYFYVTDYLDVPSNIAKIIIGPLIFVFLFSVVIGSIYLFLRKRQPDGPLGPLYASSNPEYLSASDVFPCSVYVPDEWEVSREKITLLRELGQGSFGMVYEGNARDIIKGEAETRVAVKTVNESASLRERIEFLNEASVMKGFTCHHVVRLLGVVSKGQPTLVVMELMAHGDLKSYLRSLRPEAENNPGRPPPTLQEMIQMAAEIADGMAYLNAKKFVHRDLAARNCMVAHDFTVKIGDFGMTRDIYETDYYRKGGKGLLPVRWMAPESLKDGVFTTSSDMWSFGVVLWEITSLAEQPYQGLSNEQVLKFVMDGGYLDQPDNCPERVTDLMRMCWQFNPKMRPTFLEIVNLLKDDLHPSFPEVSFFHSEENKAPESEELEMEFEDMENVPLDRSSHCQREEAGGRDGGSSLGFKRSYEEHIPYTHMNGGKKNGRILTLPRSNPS

The target in the first experiment is RPS6KB2 (human) (UniProt Q9UBS0). As to the kind of experiment: radiometric filter-binding kinase assay, Kinase HotSpot. Conditions: compound 0.5 µM; ATP 10 µM.
Turning to `O=C1NC(=O)C(c2cn(CCCn3ccnc3)c3ccccc23)=C1Nc1ccccc1`, the residual activity worked out at 86.1%.
Same read-out and setting: to `CCCC(=O)Oc1ccc2[nH]c(C(=O)c3cc4ccccc4[nH]3)cc2c1` belongs 102%.
Same read-out and setting: to `CCN(CC)CCNC(=O)c1c(C)[nH]c(/C=C2\C(=O)Nc3ccc(Cl)cc32)c1C` belongs 91.6%.

The target in the next experiment is CSNK1D (human) (UniProt P48730). Described as above. Conditions: compound 0.5 µM; ATP 10 µM.
Regarding `O=C1NC(=O)C(c2cn(CCCn3ccnc3)c3ccccc23)=C1Nc1ccccc1`, the residual activity turned out to be 102%.
On the same count and under the same terms, the result for `CCCC(=O)Oc1ccc2[nH]c(C(=O)c3cc4ccccc4[nH]3)cc2c1` reads 96.4%; that for `CCN(CC)CCNC(=O)c1c(C)[nH]c(/C=C2\C(=O)Nc3ccc(Cl)cc32)c1C`, 49.7%.

In a further experiment the target is TGFBR1 (human) (UniProt P36897). The experiment is described as above. Conditions: compound 0.5 µM; ATP 10 µM.
For `O=C1NC(=O)C(c2cn(CCCn3ccnc3)c3ccccc23)=C1Nc1ccccc1`, the residual activity was determined as 101%.
On to `CCCC(=O)Oc1ccc2[nH]c(C(=O)c3cc4ccccc4[nH]3)cc2c1`, for which the residual activity was determined as 101%.
As to `CCN(CC)CCNC(=O)c1c(C)[nH]c(/C=C2\C(=O)Nc3ccc(Cl)cc32)c1C`, the residual activity was 95.5%.

The target of another experiment is CDC42BPA (human) (UniProt Q5VT25). The description is as above. Conditions: compound 0.5 µM; ATP 10 µM.
Consider `O=C1NC(=O)C(c2cn(CCCn3ccnc3)c3ccccc23)=C1Nc1ccccc1`, for which the residual activity came to 95.2%.
Turning to `CCCC(=O)Oc1ccc2[nH]c(C(=O)c3cc4ccccc4[nH]3)cc2c1`, the residual activity stood at 98%.
As to `CCN(CC)CCNC(=O)c1c(C)[nH]c(/C=C2\C(=O)Nc3ccc(Cl)cc32)c1C`, the residual activity was determined as 60%.

A further experiment has as its target HIPK2 (human) (UniProt Q9H2X6). The experiment is described as above. Conditions: compound 0.5 µM; ATP 10 µM.
As for `O=C1NC(=O)C(c2cn(CCCn3ccnc3)c3ccccc23)=C1Nc1ccccc1`, the residual activity amounted to 87.6%.
In the case of `CCCC(=O)Oc1ccc2[nH]c(C(=O)c3cc4ccccc4[nH]3)cc2c1`, the residual activity stood at 92.1%.
`CCN(CC)CCNC(=O)c1c(C)[nH]c(/C=C2\C(=O)Nc3ccc(Cl)cc32)c1C`: the residual activity amounted to 20%.

Another experiment deals with NEK11 (human) (UniProt Q8NG66). The experiment is described as above. Conditions: compound 0.5 µM; ATP 10 µM.
Take `O=C1NC(=O)C(c2cn(CCCn3ccnc3)c3ccccc23)=C1Nc1ccccc1`: the residual activity came out at 75.6%.
Still for that read-out and setting: to `CCCC(=O)Oc1ccc2[nH]c(C(=O)c3cc4ccccc4[nH]3)cc2c1` belongs 101%; to `CCN(CC)CCNC(=O)c1c(C)[nH]c(/C=C2\C(=O)Nc3ccc(Cl)cc32)c1C`, 83.4%.

Another experiment addresses BRSK2 (human) (UniProt Q8IWQ3). The description is as above. To be noted: compound 0.5 µM; ATP 10 µM.
`O=C1NC(=O)C(c2cn(CCCn3ccnc3)c3ccccc23)=C1Nc1ccccc1`: the residual activity came out at 93.6%.
On the same count and under the same terms, the result for `CCCC(=O)Oc1ccc2[nH]c(C(=O)c3cc4ccccc4[nH]3)cc2c1` reads 98.8%; that for `CCN(CC)CCNC(=O)c1c(C)[nH]c(/C=C2\C(=O)Nc3ccc(Cl)cc32)c1C`, 53.7%.

The next experiment addresses PRKCD (human) (UniProt Q05655). Described as above. To be noted: compound 0.5 µM; ATP 10 µM.
In the case of `O=C1NC(=O)C(c2cn(CCCn3ccnc3)c3ccccc23)=C1Nc1ccccc1`, the residual activity is 19.3%.
Regarding `CCCC(=O)Oc1ccc2[nH]c(C(=O)c3cc4ccccc4[nH]3)cc2c1`, the residual activity amounted to 88.8%.
Turning to `CCN(CC)CCNC(=O)c1c(C)[nH]c(/C=C2\C(=O)Nc3ccc(Cl)cc32)c1C`, the residual activity came to 90.4%.

The target in a further experiment is MARK3 (human) (UniProt P27448). The description is as above. To be noted: compound 0.5 µM; ATP 10 µM.
`O=C1NC(=O)C(c2cn(CCCn3ccnc3)c3ccccc23)=C1Nc1ccccc1`: the residual activity came to 92.1%.
The same measure, in the same setting: to `CCCC(=O)Oc1ccc2[nH]c(C(=O)c3cc4ccccc4[nH]3)cc2c1` belongs 92.1%; to `CCN(CC)CCNC(=O)c1c(C)[nH]c(/C=C2\C(=O)Nc3ccc(Cl)cc32)c1C`, 7.86%.

The next experiment deals with MAPK13 (human) (UniProt O15264). The description is as above. To be noted: compound 0.5 µM; ATP 10 µM.
Take `O=C1NC(=O)C(c2cn(CCCn3ccnc3)c3ccccc23)=C1Nc1ccccc1`: the residual activity was found to be 122%.
Still for that read-out and setting: the result for `CCCC(=O)Oc1ccc2[nH]c(C(=O)c3cc4ccccc4[nH]3)cc2c1` reads 103%; that for `CCN(CC)CCNC(=O)c1c(C)[nH]c(/C=C2\C(=O)Nc3ccc(Cl)cc32)c1C`, 104%.

The target of another experiment is EPHA8 (human) (UniProt P29322). The experiment is described as above. To be noted: compound 0.5 µM; ATP 10 µM.
Sequence of EPHA8 (human) (P29322 whole entry, looked up): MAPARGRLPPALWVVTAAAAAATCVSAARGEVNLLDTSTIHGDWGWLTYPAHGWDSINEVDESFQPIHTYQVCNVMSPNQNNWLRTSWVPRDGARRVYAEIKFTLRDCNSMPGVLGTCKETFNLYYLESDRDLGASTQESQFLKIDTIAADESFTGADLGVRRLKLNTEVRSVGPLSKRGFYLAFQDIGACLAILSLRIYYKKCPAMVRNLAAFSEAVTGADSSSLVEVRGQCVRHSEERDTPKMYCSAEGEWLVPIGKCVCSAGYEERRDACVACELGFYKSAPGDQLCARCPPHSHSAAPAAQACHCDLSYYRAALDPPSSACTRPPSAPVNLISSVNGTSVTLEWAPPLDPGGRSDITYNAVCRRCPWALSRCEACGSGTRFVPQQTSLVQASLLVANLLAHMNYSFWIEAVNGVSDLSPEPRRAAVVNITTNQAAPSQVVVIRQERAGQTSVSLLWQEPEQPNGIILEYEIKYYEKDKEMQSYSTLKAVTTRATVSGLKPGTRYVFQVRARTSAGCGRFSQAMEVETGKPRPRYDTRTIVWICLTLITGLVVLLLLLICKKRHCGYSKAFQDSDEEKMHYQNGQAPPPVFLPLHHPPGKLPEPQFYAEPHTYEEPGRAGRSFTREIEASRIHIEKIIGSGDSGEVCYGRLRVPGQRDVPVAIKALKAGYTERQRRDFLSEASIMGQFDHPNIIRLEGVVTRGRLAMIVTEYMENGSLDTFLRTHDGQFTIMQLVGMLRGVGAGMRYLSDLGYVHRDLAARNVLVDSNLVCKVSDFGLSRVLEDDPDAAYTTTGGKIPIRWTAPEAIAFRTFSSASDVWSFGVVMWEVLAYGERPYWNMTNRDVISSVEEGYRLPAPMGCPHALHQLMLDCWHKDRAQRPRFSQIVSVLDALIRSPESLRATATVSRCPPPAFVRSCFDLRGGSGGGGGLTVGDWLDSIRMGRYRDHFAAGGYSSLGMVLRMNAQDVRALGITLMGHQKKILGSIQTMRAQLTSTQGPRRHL
As to `O=C1NC(=O)C(c2cn(CCCn3ccnc3)c3ccccc23)=C1Nc1ccccc1`, the residual activity is 104%.
The same measure, in the same setting: to `CCCC(=O)Oc1ccc2[nH]c(C(=O)c3cc4ccccc4[nH]3)cc2c1` belongs 98%; to `CCN(CC)CCNC(=O)c1c(C)[nH]c(/C=C2\C(=O)Nc3ccc(Cl)cc32)c1C`, 99.5%.

The target in another experiment is MINK1 (human) (UniProt Q8N4C8). Described as above. To be noted: compound 0.5 µM; ATP 10 µM.
On to `O=C1NC(=O)C(c2cn(CCCn3ccnc3)c3ccccc23)=C1Nc1ccccc1`, for which the residual activity was determined as 90.1%.
Still for that read-out and setting: the result for `CCCC(=O)Oc1ccc2[nH]c(C(=O)c3cc4ccccc4[nH]3)cc2c1` reads 93.8%; that for `CCN(CC)CCNC(=O)c1c(C)[nH]c(/C=C2\C(=O)Nc3ccc(Cl)cc32)c1C`, 4.4%.

A further experiment deals with TAOK2 (human) (UniProt Q9UL54). Described as above. Conditions: compound 0.5 µM; ATP 10 µM.
For the compound `O=C1NC(=O)C(c2cn(CCCn3ccnc3)c3ccccc23)=C1Nc1ccccc1`, the residual activity is 92.3%.
On the same count and under the same terms, to `CCCC(=O)Oc1ccc2[nH]c(C(=O)c3cc4ccccc4[nH]3)cc2c1` belongs 110%; to `CCN(CC)CCNC(=O)c1c(C)[nH]c(/C=C2\C(=O)Nc3ccc(Cl)cc32)c1C`, 72.6%.

The next experiment addresses PRKCG (human) (UniProt P05129). The description is as above. To be noted: compound 0.5 µM; ATP 10 µM.
`O=C1NC(=O)C(c2cn(CCCn3ccnc3)c3ccccc23)=C1Nc1ccccc1`: the residual activity was 51.6%.
The same measure, in the same setting: to `CCCC(=O)Oc1ccc2[nH]c(C(=O)c3cc4ccccc4[nH]3)cc2c1` belongs 99%; to `CCN(CC)CCNC(=O)c1c(C)[nH]c(/C=C2\C(=O)Nc3ccc(Cl)cc32)c1C`, 101%.

A further experiment has as its target INSR (human) (UniProt P06213). The experiment is described as above. To be noted: compound 0.5 µM; ATP 10 µM.
On to `O=C1NC(=O)C(c2cn(CCCn3ccnc3)c3ccccc23)=C1Nc1ccccc1`, for which the residual activity is 84.4%.
The same measure, in the same setting: to `CCCC(=O)Oc1ccc2[nH]c(C(=O)c3cc4ccccc4[nH]3)cc2c1` belongs 101%; to `CCN(CC)CCNC(=O)c1c(C)[nH]c(/C=C2\C(=O)Nc3ccc(Cl)cc32)c1C`, 30.1%.

The target in the next experiment is MAP2K2 (human) (UniProt P36507). The description is as above. Conditions: compound 0.5 µM; ATP 10 µM.
`O=C1NC(=O)C(c2cn(CCCn3ccnc3)c3ccccc23)=C1Nc1ccccc1`: the residual activity stood at 102%.
For the compound `CCCC(=O)Oc1ccc2[nH]c(C(=O)c3cc4ccccc4[nH]3)cc2c1`, the residual activity was 98.7%.
The same measure, in the same setting: to `CCN(CC)CCNC(=O)c1c(C)[nH]c(/C=C2\C(=O)Nc3ccc(Cl)cc32)c1C` belongs 41.4%.

For the next experiment, the target named is ABL2 (human) (UniProt P42684). The description is as above. Conditions: compound 0.5 µM; ATP 10 µM.
Take `O=C1NC(=O)C(c2cn(CCCn3ccnc3)c3ccccc23)=C1Nc1ccccc1`: the residual activity came out at 91.8%.
On the same count and under the same terms, the result for `CCCC(=O)Oc1ccc2[nH]c(C(=O)c3cc4ccccc4[nH]3)cc2c1` reads 96.3%; that for `CCN(CC)CCNC(=O)c1c(C)[nH]c(/C=C2\C(=O)Nc3ccc(Cl)cc32)c1C`, 46.8%.

The target in another experiment is FGR (human) (UniProt P09769). Described as above. To be noted: compound 0.5 µM; ATP 10 µM.
Turning to `O=C1NC(=O)C(c2cn(CCCn3ccnc3)c3ccccc23)=C1Nc1ccccc1`, the residual activity was 86.3%.
Same read-out and setting: the result for `CCCC(=O)Oc1ccc2[nH]c(C(=O)c3cc4ccccc4[nH]3)cc2c1` reads 88.4%; that for `CCN(CC)CCNC(=O)c1c(C)[nH]c(/C=C2\C(=O)Nc3ccc(Cl)cc32)c1C`, 11.5%.

The next experiment concerns the target PIM3 (human) (UniProt Q86V86). The description is as above. Conditions: compound 0.5 µM; ATP 10 µM.
Regarding `O=C1NC(=O)C(c2cn(CCCn3ccnc3)c3ccccc23)=C1Nc1ccccc1`, the residual activity worked out at 97.5%.
As for `CCCC(=O)Oc1ccc2[nH]c(C(=O)c3cc4ccccc4[nH]3)cc2c1`, the residual activity was determined as 84.5%.
The same measure, in the same setting: the result for `CCN(CC)CCNC(=O)c1c(C)[nH]c(/C=C2\C(=O)Nc3ccc(Cl)cc32)c1C` reads 74%.

A further experiment addresses FER (human) (UniProt P16591). The experiment is described as above. To be noted: compound 0.5 µM; ATP 10 µM.
With `O=C1NC(=O)C(c2cn(CCCn3ccnc3)c3ccccc23)=C1Nc1ccccc1`, the residual activity was determined as 56.1%.
Still for that read-out and setting: the result for `CCCC(=O)Oc1ccc2[nH]c(C(=O)c3cc4ccccc4[nH]3)cc2c1` reads 101%.
Still for that read-out and setting: to `CCN(CC)CCNC(=O)c1c(C)[nH]c(/C=C2\C(=O)Nc3ccc(Cl)cc32)c1C` belongs 17.7%.

Another experiment deals with TYRO3 (human) (UniProt Q06418). The description is as above. To be noted: compound 0.5 µM; ATP 10 µM.
Consider `O=C1NC(=O)C(c2cn(CCCn3ccnc3)c3ccccc23)=C1Nc1ccccc1`, for which the residual activity was determined as 99.6%.
Same read-out and setting: the result for `CCCC(=O)Oc1ccc2[nH]c(C(=O)c3cc4ccccc4[nH]3)cc2c1` reads 101%; that for `CCN(CC)CCNC(=O)c1c(C)[nH]c(/C=C2\C(=O)Nc3ccc(Cl)cc32)c1C`, 23.2%.
